Experimental data reported in US8354436B2 (4SC Discovery GmbH, priority 2011, dated 2013).
pIC50: −log10 of the molar value. Read-outs that look alike come from different tables or passages of the source.

Experiments:
Type in all cases: cell-based
Conditions in all cases: 48 hours
[1] = test system: PBMC from healthy human donors; assay: T cell proliferation assay (PHA-stimulated human PBMC, BrdU ELISA)
In short: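 Healthy-donor PBMC isolated on Ficoll, seeded at 1×10⁵ cells/well in RPMI with 10% dialysed FCS, stimulated with 2 μg/ml PHA in presence of test compound. Proliferation read after 48 hours by BrdU-incorporation ELISA.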

[2] = test system: IL-17FF; assay: IL-17FF production by PHA-stimulated human PBMC (human IL-17F ELI-Pair)
In short: (§1)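 Healthy-donor PBMC (1×10^5 cells/well) were activated with 2 μg/ml PHA and cultured with test compounds for 48 hours; cytokines were then quantified in supernatants by the respective immunoassay. Screening used 10, 1, 0.1 and 0.01 μM; IC50 came from semilogarithmic compound titration.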

[3] = test system: IFN-γ; assay: IFN-γ production by PHA-stimulated human PBMC (OptEIA human IFN-g ELISA)
In short: as §1

[4] = PHA-stimulated human PBMC, column D, read-out: IC50 (Tcell proliferation)
[5] = PHA-stimulated human PBMC, column B, read-out: IC50 (IL-17FF)
[6] = PHA-stimulated human PBMC, column C, read-out: IC50 (IFNγ)
[7] = human PBMC, 2 μg/ml PHA, read-out: D: IC50 (Tcell proliferation)
[8] = human PBMC, 2 μg/ml PHA, read-out: B: IC50 (IL-17FF)
[9] = human PBMC, 2 μg/ml PHA, read-out: C: IC50 (IFNγ)

Row | Compound | pIC50 [1, 4] | pIC50 [2, 5] | pIC50 [3, 6] | pIC50 [1, 7] | pIC50 [2, 8] | pIC50 [3, 9]
1 | CC(C)NS(=O)(=O)c1cccc(-n2ncc(-c3onc(-c4c(F)cccc4Cl)c3C(=O)OC(C)C)c2C(F)(F)F)c1 [IB-79, isopropyl 3-(2-chloro-6-fluorophenyl)-5-(1-(3-(N-isopropylsulfamoyl)phenyl)-5-(trifluoromethyl)-1H-pyrazol-4-yl)isoxazole-4-carboxylate] | 6.00 to 7.00 | 6.00 to 7.00 | 6.00 to 7.00 |  |  | 
2 | Cc1nnc(-c2c(-c3c(F)cccc3Cl)noc2-c2cnn(-c3ccncc3)c2C(F)(F)F)s1 [Example B-22, 3-(2-chloro-6-fluorophenyl)-4-(5-methyl-1,3,4-thiadiazol-2-yl)-5-(1-(pyridin-4-yl)-5-(trifluoromethyl)-1H-pyrazol-4-yl)isoxazole] |  |  |  | 6.00 to 7.00 | 6.00 to 7.00 | 7.00 to 8.00
3 | O=C(c1c(-c2c(F)cccc2Cl)noc1-c1cnn(-c2cccc(F)c2)c1C(F)(F)F)N1CCOCC1 [Example I-127, (3-(2-chloro-6-fluorophenyl)-5-(1-(3-fluorophenyl)-5-(trifluoromethyl)-1H-pyrazol-4-yl)isoxazol-4-yl)(morpholino)methanone] | 5.00 to 6.00 | 6.00 to 7.00 | 6.00 to 7.00 |  |  | 
4 | COc1cccc(Cl)c1-c1noc(-c2cnn(-c3ccccc3Cl)c2C(F)(F)F)c1-c1cnco1 [Example B-34, 3-(2-chloro-6-methoxyphenyl)-5-(1-(2-chlorophenyl)-5-(trifluoromethyl)-1H-pyrazol-4-yl)-4-(oxazol-5-yl)isoxazole] |  |  |  | 6.00 to 7.00 | 6.00 to 7.00 | 6.00 to 7.00
5 | CCOC(=O)c1c(-c2c(F)cccc2Cl)noc1-c1cnn(-c2cccc(S(N)(=O)=O)c2)c1C(F)(F)F [IB-43, ethyl 3-(2-chloro-6-fluorophenyl)-5-(1-(3-sulfamoylphenyl)-5-(trifluoromethyl)-1H-pyrazol-4-yl)-isoxazole-4-carboxylate] | 5.00 to 6.00 | 6.00 to 7.00 | 5.00 to 6.00 |  |  | 
6 | O=C(c1c(-c2c(F)cccc2Cl)noc1-c1cnn(-c2cccnc2)c1C(F)(F)F)N1CCCO1 [IB-54, (3-(2-chloro-6-fluorophenyl)-5-(1-(pyridin-3-yl)-5-(trifluoromethyl)-1H-pyrazol-4-yl)isoxazol-4-yl)(isoxazolidin-2-yl)methanone] | 5.00 to 6.00 | 5.00 to 6.00 | 5.00 to 6.00 |  |  | 
7 | NC(=S)c1c(-c2c(F)cccc2Cl)noc1-c1cnn(-c2ccccc2Cl)c1C(F)(F)F [IB-101, 3-(2-chloro-6-fluorophenyl)-5-(1-(2-chlorophenyl)-5-(trifluoromethyl)-1H-pyrazol-4-yl)isoxazole-4-carbothioamide] | 5.00 to 6.00 | 5.00 to 6.00 | 5.00 to 6.00 |  |  | 
8 | O=C(c1c(-c2c(F)cccc2Cl)noc1-c1cnn(-c2ccncc2)c1C(F)(F)F)N1CCCO1 [IB-57, (3-(2-chloro-6-fluorophenyl)-5-(1-(pyridin-4-yl)-5-(trifluoromethyl)-1H-pyrazol-4-yl)isoxazol-4-yl)(isoxazolidin-2-yl)methanone] | 5.00 to 6.00 | 5.00 to 6.00 | 5.00 to 6.00 |  |  | 
9 | CCOC(=O)c1c(-c2c(Cl)cncc2Cl)noc1-c1cnn(-c2ccccc2Cl)c1C(F)(F)F [IB-16, ethyl 5-(1-(2-chlorophenyl)-5-(trifluoromethyl)-1H-pyrazol-4-yl)-3-(3,5-dichloropyridin-4-yl)isoxazole-4-carboxylate] | 5.00 to 6.00 | 6.00 to 7.00 | 5.00 to 6.00 |  |  | 
10 | CC(C)OC(=O)c1c(-c2c(F)cccc2Cl)noc1-c1cnn(-c2cccnc2)c1C(F)(F)F [IB-61, isopropyl 3-(2-chloro-6-fluorophenyl)-5-(1-(pyridin-3-yl)-5-(trifluoromethyl)-1H-pyrazol-4-yl)isoxazole-4-carboxylate] | 7.00 to 8.00 | 7.00 to 8.00 | > 8.00 |  |  | 
11 | Fc1cccc(-n2ncc(-c3onc(-c4c(F)cccc4Cl)c3Br)c2C(F)(F)F)c1 [Example I-137, 4-bromo-3-(2-chloro-6-fluorophenyl)-5-(1-(3-fluorophenyl)-5-(trifluoromethyl)-1H-pyrazol-4-yl)isoxazole] | 7.00 to 8.00 | 6.00 to 7.00 | 6.00 to 7.00 |  |  | 
